Experimental data: US11649237B2, “Substituted imidazo[1,5-a]pyrazines for IRE1 inhibition” (Optikira LLC, priority 2017, dated 2023)

Experiments:
[1] = system: XBP-1 splicing in ARPE-19 cells or apoptosis of INS-1 cells expressing mIRE-1; assay: Cellular assay (XBP1 splicing assay or apoptosis assay); format: cell-based; conditions: data are for the XBP1 splicing assay or the apoptosis assay (not specified per compound)
Procedure: ARPE-19 cells stably expressing XBP-1 (a.a. 1-376) with nano-luciferase gene sequence linked so it is in frame when XBP-1 is spliced, were cultured in F12 media, 10% FBS, 0.044% sodium bicarbonate, 150 μg/ml hygromycin B and seeded for assays at 5,000 cells in 384 well plates in culture media without hygromycin B and incubated at 37° C./5% CO2. […] After further incubation of 30 minutes thapsigargin was added (final concentration 150 nM) and then another 4 hour incubation. A NanoLuc luciferase assay (Promega) was used according to the manufacturer's instructions to detect the luciferase and luminescence measured on a luminometer (EnVision, PerkinElmer).
Doxycycline (final concentration 100 nM) was added and plates incubated for a further 72 hours. To determine the proportion of apoptotic cells Hoechst 33342 (final concentration 10 μg/mL) was added, then after 30 minutes incubation cells imaged and analyzed on an InCell high content imager.

IRE1α RNase = IRE1α RNase (Homo sapiens (Human), UniProt O75460); assay: Biochemical assay, inhibition of RNase activity of IRE1α
Chain of IRE1α RNase (O75460 468-977): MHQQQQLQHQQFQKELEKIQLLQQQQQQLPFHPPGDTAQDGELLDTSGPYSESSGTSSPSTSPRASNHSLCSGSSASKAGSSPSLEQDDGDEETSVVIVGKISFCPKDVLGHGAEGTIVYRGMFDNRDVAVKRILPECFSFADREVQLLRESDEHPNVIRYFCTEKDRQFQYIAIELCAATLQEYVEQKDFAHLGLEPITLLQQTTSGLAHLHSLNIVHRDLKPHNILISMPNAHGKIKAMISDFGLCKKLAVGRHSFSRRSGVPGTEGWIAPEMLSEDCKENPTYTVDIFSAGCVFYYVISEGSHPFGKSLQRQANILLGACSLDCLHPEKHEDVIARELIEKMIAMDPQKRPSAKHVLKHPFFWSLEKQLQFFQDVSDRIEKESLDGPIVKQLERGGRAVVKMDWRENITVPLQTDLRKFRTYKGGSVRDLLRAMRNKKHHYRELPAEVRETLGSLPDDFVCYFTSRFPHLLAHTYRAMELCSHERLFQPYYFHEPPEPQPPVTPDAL
Procedure: Test compounds were prepared on the day of assay and dispensed using D300 digital dispenser as a 10-point ½ log dilution series in duplicate, normalized to a final DMSO concentration of 4%. Test compounds were pre-incubated for 30 min at room temperature with IRE1α kinase (E31-11G from Signal Chem) in 2.5 μL of assay buffer.

SMILES	IC50 [1] [nM]	IC50 (IRE1α RNase) [nM]
CC(C)c1nc(-c2ccc(NS(=O)(=O)Cc3ccccc3Cl)c(F)c2)c2c(N)ncc(C3=CCC(O)CC3)n12 (stereo not shown) [Example 224, N-(4-(8-amino-5-(4-hydroxycyclohex-1-en-1-yl)-3-isopropylimidazo[1,5-a]pyrazin-1-yl)-2-fluorophenyl)-1-(2-chlorophenyl)methanesulfonamide]	42	–
CC(C)c1nc(-c2ccc(NS(=O)(=O)c3ccccc3Cl)c(F)c2)c2c(N)ncc(C3=CCC(O)CC3)n12 (stereo not shown) [Example 225, N-(4-(8-amino-5-(4-hydroxycyclohex-1-en-1-yl)-3-isopropylimidazo[1,5-a]pyrazin-1-yl)-2-fluorophenyl)-2-chlorobenzenesulfonamide]	250	–
CC(C)c1nc(-c2ccc(NS(=O)(=O)c3ccccc3Cl)c(F)c2)c2c(N)ncc(C3=CCC(NCC(F)F)CC3)n12 (stereo not shown) [Example 226, N-(4-(8-amino-5-(4-((2,2-difluoroethyl)amino)cyclohex-1-en-1-yl)-3-isopropylimidazo[1,5-a]pyrazin-1-yl)-2-fluorophenyl)-2-chlorobenzenesulfonamide]	330	213
CC(C)c1nc(-c2ccc(NS(=O)(=O)Cc3ccccc3Cl)c(F)c2)c2c(N)ncc(C3=CCC(NC4COC4)CC3)n12 (stereo not shown) [Example 227, N-(4-(8-amino-3-isopropyl-5-(4-(oxetan-3-ylamino)cyclohex-1-en-1-yl)imidazo[1,5-a]pyrazin-1-yl)-2-fluorophenyl)-1-(2-chlorophenyl)methanesulfonamide]	87	–
CC(C)c1nc(-c2cc(F)c(NS(=O)(=O)c3ccccc3Cl)cc2F)c2c(N)ncc(C3=CCC(NCCF)CC3)n12 (stereo not shown) [Example 228, N-(4-(8-amino-5-(4-((2-fluoroethyl)amino)cyclohex-1-en-1-yl)-3-isopropylimidazo[1,5-a]pyrazin-1-yl)-2,5-difluorophenyl)-2-chlorobenzenesulfonamide]	10	6
CC(C)c1nc(-c2ccc(NS(=O)(=O)c3ccccc3F)c(F)c2)c2c(N)ncc(C3=CCC(NCCF)CC3)n12 (stereo not shown) [Example 229, N-(4-(8-amino-5-(4-((2-fluoroethyl)amino)cyclohex-1-en-1-yl)-3-isopropylimidazo[1,5-a]pyrazin-1-yl)-2-fluorophenyl)-2-fluorobenzenesulfonamide]	25	25
CC(C)c1nc(-c2ccc(NS(=O)(=O)c3ccccc3Cl)c(F)c2)c2c(N)ncc(C3=CCC(N(C)CCF)CC3)n12 (stereo not shown) [Example 230, N-(4-(8-amino-5-(4-((2-fluoroethyl)(methyl)amino)cyclohex-1-en-1-yl)-3-isopropylimidazo[1,5-a]pyrazin-1-yl)-2-fluorophenyl)-2-chlorobenzenesulfonamide]	19	–
Cc1nc(-c2ccc(NS(=O)(=O)c3ccccc3Cl)c(F)c2)c2c(N)ncc(C3=CCC(NCCF)CC3)n12 (stereo not shown) [Example 231, N-(4-(8-amino-5-(4-((2-fluoroethyl)amino)cyclohex-1-en-1-yl)-3-methylimidazo[1,5-a]pyrazin-1-yl)-2-fluorophenyl)-2-chlorobenzenesulfonamide]	19	–
CC(C)c1nc(-c2ccc(NS(=O)(=O)c3ccccc3Cl)c(F)c2)c2c(N)ncc(C3=CCC(NC4COC4)CC3)n12 (stereo not shown) [Example 232, N-(4-(8-amino-3-isopropyl-5-(4-(oxetan-3-ylamino)cyclohex-1-en-1-yl)imidazo[1,5-a]pyrazin-1-yl)-2-fluorophenyl)-2-chlorobenzenesulfonamide]	200	60
